According to patent publication US20240382629A1, “HETEROBIVALENT AND HOMOBIVALENT AGENTS TARGETING FIBROBLAST ACTIVATION PROTEIN ALPHA AND/OR PROSTATE-SPECIFIC MEMBRANE ANTIGEN” (The Johns Hopkins University, priority 2021, published 2024):
Several values for one entry are separate records, joined by “and”; a condition that tells them apart may be missing. Equal entries are not always repeated.

Assay: Biodistribution of [^18F]JHU1221823 with cold FAPI-04 blocker
Assay type: in vivo, mouse
Conditions: for % ID/g Bladder / % ID/g Blood / % ID/g Brain / % ID/g Fat / % ID/g Femur / % ID/g Heart / % ID/g Kidney / % ID/g Large intestine / % ID/g Liver / % ID/g Lung / % ID/g Muscle / % ID/g Pancreas / % ID/g Salivary gland / % ID/g Small intestine / % ID/g Spleen / % ID/g Stomach / % ID/g Tumor: single mouse

Q: Which results are given for N#C[C@@H]1CCCN1C(=O)CNC(=O)c1ccnc2ccc(OCCCNC(=O)CCOCCOCCOCCOCCNC(=O)[C@H](CCCCNC(=O)c3ccc([18F])nc3)NC(=O)CN3CCN(CC(=O)O)CCN(CC(=O)O)CCN(CC(=O)O)CC3)cc12 [[^18F]JHU1221823]?
A: % ID/g Mean Bladder (30 min): 2.49 % ID/g; % ID/g Bladder (30 min): 1.53 % ID/g and 3.45 % ID/g; % ID/g Mean Bladder (60 min): 5.51 % ID/g; % ID/g Bladder (60 min): 3.64 % ID/g and 7.58 % ID/g; % ID/g Mean Bladder (+ Blocker Cold FAPI-04, 60 min): 2.33 % ID/g; % ID/g Bladder (+ Blocker Cold FAPI-04, 60 min): 2.62 % ID/g and 2.04 % ID/g; % ID/g Mean Blood (30 min): 10.81 % ID/g; % ID/g Blood (30 min): 11.89 % ID/g and 9.72 % ID/g; % ID/g Mean Blood (60 min): 10.03 % ID/g; % ID/g Blood (60 min): 9.50 % ID/g and 10.76 % ID/g; % ID/g Mean Blood (+ Blocker Cold FAPI-04, 60 min): 0.25 % ID/g; % ID/g Blood (+ Blocker Cold FAPI-04, 60 min): 0.22 % ID/g and 0.28 % ID/g; % ID/g Mean Brain (30 min): 0.29 % ID/g; % ID/g Brain (30 min): 0.26 % ID/g and 0.31 % ID/g; % ID/g Mean Brain (60 min): 0.45 % ID/g; % ID/g Brain (60 min): 0.40 % ID/g and 0.50 % ID/g; % ID/g Mean Brain (+ Blocker Cold FAPI-04, 60 min): 0.09 % ID/g; % ID/g Brain (+ Blocker Cold FAPI-04, 60 min): 0.06 % ID/g and 0.11 % ID/g; % ID/g Mean Fat (30 min): 0.42 % ID/g; % ID/g Fat (30 min): 0.41 % ID/g and 0.43 % ID/g; % ID/g Mean Fat (60 min): 0.56 % ID/g; % ID/g Fat (60 min): 0.53 % ID/g and 0.58 % ID/g; % ID/g Mean Fat (+ Blocker Cold FAPI-04, 60 min): 0.21 % ID/g; % ID/g Fat (+ Blocker Cold FAPI-04, 60 min): 0.15 % ID/g and 0.27 % ID/g; % ID/g Mean Femur (30 min): 3.50 % ID/g; % ID/g Femur (30 min): 3.95 % ID/g and 3.45 % ID/g; % ID/g Mean Femur (60 min): 3.54 % ID/g; % ID/g Femur (60 min): 3.21 % ID/g and 3.87 % ID/g; % ID/g Mean Femur (+ Blocker Cold FAPI-04, 60 min): 1.78 % ID/g; % ID/g Femur (+ Blocker Cold FAPI-04, 60 min): 0.98 % ID/g and 2.58 % ID/g; % ID/g Mean Heart (30 min): 5.01 % ID/g; % ID/g Heart (30 min): 5.25 % ID/g and 4.76 % ID/g; % ID/g Mean Heart (60 min): 4.52 % ID/g; % ID/g Heart (60 min): 4.67 % ID/g and 4.58 % ID/g; % ID/g Mean Heart (+ Blocker Cold FAPI-04, 60 min): 0.28 % ID/g; % ID/g Heart (+ Blocker Cold FAPI-04, 60 min): 0.22 % ID/g and 0.33 % ID/g; % ID/g Mean Kidney (30 min): 3.17 % ID/g; % ID/g Kidney (30 min): 3.37 % ID/g and 2.96 % ID/g; % ID/g Mean Kidney (60 min): 2.75 % ID/g; % ID/g Kidney (60 min): 2.76 % ID/g and 2.75 % ID/g; % ID/g Mean Kidney (+ Blocker Cold FAPI-04, 60 min): 1.77 % ID/g; % ID/g Kidney (+ Blocker Cold FAPI-04, 60 min): 1.85 % ID/g and 1.69 % ID/g; % ID/g Mean Large intestine (30 min): 2.14 % ID/g; % ID/g Large intestine (30 min): 1.61 % ID/g and 2.67 % ID/g; % ID/g Mean Large intestine (60 min): 5.58 % ID/g; % ID/g Large intestine (60 min): 1.70 % ID/g and 5.45 % ID/g; % ID/g Mean Large intestine (+ Blocker Cold FAPI-04, 60 min): 0.47 % ID/g; % ID/g Large intestine (+ Blocker Cold FAPI-04, 60 min): 0.41 % ID/g and 0.52 % ID/g; % ID/g Mean Liver (30 min): 2.44 % ID/g; % ID/g Liver (30 min): 2.58 % ID/g and 2.30 % ID/g; % ID/g Mean Liver (60 min): 2.62 % ID/g; % ID/g Liver (60 min): 2.49 % ID/g and 2.75 % ID/g; % ID/g Mean Liver (+ Blocker Cold FAPI-04, 60 min): 0.44 % ID/g; % ID/g Liver (+ Blocker Cold FAPI-04, 60 min): 0.35 % ID/g and 0.51 % ID/g; % ID/g Mean Lung (30 min): 6.38 % ID/g; % ID/g Lung (30 min): 6.92 % ID/g and 5.83 % ID/g; % ID/g Mean Lung (60 min): 6.05 % ID/g; % ID/g Lung (60 min): 5.36 % ID/g and 6.75 % ID/g; % ID/g Mean Lung (+ Blocker Cold FAPI-04, 60 min): 0.72 % ID/g; % ID/g Lung (+ Blocker Cold FAPI-04, 60 min): 0.54 % ID/g and 0.89 % ID/g; % ID/g Mean Muscle (30 min): 1.73 % ID/g; % ID/g Muscle (30 min): 1.74 % ID/g and 1.71 % ID/g; % ID/g Mean Muscle (60 min): 1.75 % ID/g; % ID/g Muscle (60 min): 1.76 % ID/g and 1.75 % ID/g; % ID/g Mean Muscle (+ Blocker Cold FAPI-04, 60 min): 0.48 % ID/g; % ID/g Muscle (+ Blocker Cold FAPI-04, 60 min): 0.25 % ID/g and 0.61 % ID/g; % ID/g Mean Pancreas (30 min): 3.13 % ID/g; % ID/g Pancreas (30 min): 3.58 % ID/g and 2.88 % ID/g; % ID/g Mean Pancreas (60 min): 3.70 % ID/g; % ID/g Pancreas (60 min): 5.44 % ID/g and 3.95 % ID/g; % ID/g Mean Pancreas (+ Blocker Cold FAPI-04, 60 min): 0.37 % ID/g; % ID/g Pancreas (+ Blocker Cold FAPI-04, 60 min): 0.27 % ID/g and 0.46 % ID/g; % ID/g Mean Salivary gland (30 min): 8.51 % ID/g; % ID/g Salivary gland (30 min): 7.35 % ID/g and 9.57 % ID/g; % ID/g Mean Salivary gland (60 min): 8.97 % ID/g; % ID/g Salivary gland (60 min): 9.14 % ID/g and 8.79 % ID/g; % ID/g Mean Salivary gland (+ Blocker Cold FAPI-04, 60 min): 0.42 % ID/g; % ID/g Salivary gland (+ Blocker Cold FAPI-04, 60 min): 0.37 % ID/g and 0.48 % ID/g; % ID/g Mean Small intestine (30 min): 2.78 % ID/g; % ID/g Small intestine (30 min): 3.08 % ID/g and 2.48 % ID/g; % ID/g Mean Small intestine (60 min): 5.18 % ID/g; % ID/g Small intestine (60 min): 8.18 % ID/g and 3.18 % ID/g; % ID/g Mean Small intestine (+ Blocker Cold FAPI-04, 60 min): 0.99 % ID/g; % ID/g Small intestine (+ Blocker Cold FAPI-04, 60 min): 0.91 % ID/g and 1.06 % ID/g; % ID/g Mean Spleen (30 min): 2.08 % ID/g; % ID/g Spleen (30 min): 2.08 % ID/g and 2.12 % ID/g; % ID/g Mean Spleen (60 min): 2.35 % ID/g; % ID/g Spleen (60 min): 2.25 % ID/g and 2.45 % ID/g; % ID/g Mean Spleen (+ Blocker Cold FAPI-04, 60 min): 0.51 % ID/g; % ID/g Spleen (+ Blocker Cold FAPI-04, 60 min): 0.29 % ID/g and 0.38 % ID/g; % ID/g Mean Stomach (30 min): 1.52 % ID/g; % ID/g Stomach (30 min): 1.84 % ID/g and 1.21 % ID/g; % ID/g Mean Stomach (60 min): 1.68 % ID/g; % ID/g Stomach (60 min): 1.68 % ID/g and 1.57 % ID/g; % ID/g Mean Stomach (+ Blocker Cold FAPI-04, 60 min): 0.34 % ID/g; % ID/g Stomach (+ Blocker Cold FAPI-04, 60 min): 0.28 % ID/g and 0.40 % ID/g; % ID/g Mean Tumor (30 min): 3.11 % ID/g; % ID/g Tumor (30 min): 2.90 % ID/g and 3.32 % ID/g; % ID/g Mean Tumor (60 min): 6.20 % ID/g; % ID/g Tumor (60 min): 5.22 % ID/g and 7.17 % ID/g; % ID/g Mean Tumor (+ Blocker Cold FAPI-04, 60 min): 1.04 % ID/g; % ID/g Tumor (+ Blocker Cold FAPI-04, 60 min): 0.89 % ID/g and 1.19 % ID/g
